For this series the following is noted: one skin biopsy 0.28 cm^2, 90 minutes.

Structures are written as SMILES. “And” between values parts separate entries of the source, which are not always exact repeats. Identical values can stand only once.

Method: A solution of E2 14C was prepared by adding 6 μL of E2 14C to 100 μL of water:ethanol (9:1) and mixed thoroughly.
The skin was marked with a surface area of 1.3 cm^2 followed by 20 times of tape stripping (D-Squame tape, 22 mm diameter) to remove the stratum corneum. The prepared E2 solutions were applied on tape stripped skin and left in the water bath for 90 minutes at 37° C. At the end of the experiment, residual materials were removed from the surface by wetting cotton swabs three times. The skin was then biopsied using a microsampling device with a diameter of 6 mm. Each piece of biopsy was placed in a 4 mL scintillation tube followed by adding 500 μL of the Solvable™ solution (Perkin Elmer Inc. USA). The samples were left in the incubator at 60° C. to digest skin overnight. To measure the E2 14C amount in each, scintillation fluid (Ultima Gold™ XR, Perkin Elmer Inc. USA) was added to fill the 4 mL tube and vortexed vigorously. […] The experiment was done in triplicates.
To calculate DPM, a counting efficiency of 25% was considered.

In the case of `C[C@]12CC[C@@H]3c4ccc(O)[14cH]c4CC[C@H]3[C@@H]1CC[C@@H]2O` [E2-14C, Estradiol, 17 β-[4-^14C]], the CPM (10 μL/cm^2 in water-ethanol on tape stripped skin) was 1365 and 940 and 869. Further, the DPM (counting efficiency 25%, tape stripped skin) was 5337 and 3760 and 3476. Further, for the setting “tape stripped skin”, the “Total E2 (ng/Biopsy)” value is 11.9 ng/Biopsy and 8.4 ng/Biopsy and 7.7 ng/Biopsy; the “ng/Biopsy (E2-14C)” value was 11.9 ng/Biopsy and 8.4 ng/Biopsy and 7.7 ng/Biopsy; the μCi/Biopsy was 0.002402 μCi/Biopsy and 0.001692 μCi/Biopsy and 0.001564 μCi/Biopsy.

Values taken from patent US20260263350A1, “COMPOSITIONS” (Estrenue Pty Ltd, priority 2022, published 2026).
